This note sets out measurements from ChEMBL document CHEMBL5346903, “Discovery of novel and bioavailable histone deacetylases and cyclin-dependent kinases dual inhibitor to impair the stemness of leukemia cells” (Eur J Med Chem, 2023).

The structures appear in SMILES notation.

For data set [1], the target named is Cyclin-dependent kinase 9 (Homo sapiens, UniProt P50750). Description: Inhibition of CDK9 (unknown origin) preincubated for 20 mins followed by [gamma-33P]ATP addition measured after 120 mins in presence of ATP by Hot-SpotSM kinase assay.
Sequence of Cyclin-dependent kinase 9 (P50750 whole entry): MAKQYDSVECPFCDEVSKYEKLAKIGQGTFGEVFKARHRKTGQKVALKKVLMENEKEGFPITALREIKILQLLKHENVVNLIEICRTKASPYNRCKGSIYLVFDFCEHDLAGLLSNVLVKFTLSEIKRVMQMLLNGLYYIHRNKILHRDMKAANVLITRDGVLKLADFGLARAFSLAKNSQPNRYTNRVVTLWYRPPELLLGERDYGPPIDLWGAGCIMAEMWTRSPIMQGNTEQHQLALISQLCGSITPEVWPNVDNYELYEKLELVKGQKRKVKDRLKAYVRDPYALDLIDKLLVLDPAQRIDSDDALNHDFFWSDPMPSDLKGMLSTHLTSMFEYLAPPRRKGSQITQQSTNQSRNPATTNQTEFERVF
The target of another data set is Histone deacetylase 3 (Homo sapiens, UniProt O15379). Description: Inhibition of recombinant human HDAC3 using HDAC substrate incubated for 30 mins by fluorescence based assay.
Sequence of Histone deacetylase 3 (O15379 whole entry): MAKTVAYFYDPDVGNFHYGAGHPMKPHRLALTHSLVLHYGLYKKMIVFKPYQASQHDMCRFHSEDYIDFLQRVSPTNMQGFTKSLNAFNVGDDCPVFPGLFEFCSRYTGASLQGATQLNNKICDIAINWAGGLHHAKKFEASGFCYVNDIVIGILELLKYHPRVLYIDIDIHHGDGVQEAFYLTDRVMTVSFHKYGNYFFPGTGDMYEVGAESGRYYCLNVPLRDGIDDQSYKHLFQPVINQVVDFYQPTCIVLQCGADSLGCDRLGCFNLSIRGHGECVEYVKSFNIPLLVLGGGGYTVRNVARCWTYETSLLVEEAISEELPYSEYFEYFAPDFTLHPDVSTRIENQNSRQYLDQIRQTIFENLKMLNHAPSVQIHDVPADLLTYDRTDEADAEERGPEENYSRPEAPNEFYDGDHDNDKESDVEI
For another data set, the target named is Histone deacetylase 5 (Homo sapiens, UniProt Q9UQL6). Description: Inhibition of recombinant human HDAC5 using HDAC substrate incubated for 30 mins by fluorescence based assay.
Sequence of Histone deacetylase 5 (Q9UQL6 whole entry): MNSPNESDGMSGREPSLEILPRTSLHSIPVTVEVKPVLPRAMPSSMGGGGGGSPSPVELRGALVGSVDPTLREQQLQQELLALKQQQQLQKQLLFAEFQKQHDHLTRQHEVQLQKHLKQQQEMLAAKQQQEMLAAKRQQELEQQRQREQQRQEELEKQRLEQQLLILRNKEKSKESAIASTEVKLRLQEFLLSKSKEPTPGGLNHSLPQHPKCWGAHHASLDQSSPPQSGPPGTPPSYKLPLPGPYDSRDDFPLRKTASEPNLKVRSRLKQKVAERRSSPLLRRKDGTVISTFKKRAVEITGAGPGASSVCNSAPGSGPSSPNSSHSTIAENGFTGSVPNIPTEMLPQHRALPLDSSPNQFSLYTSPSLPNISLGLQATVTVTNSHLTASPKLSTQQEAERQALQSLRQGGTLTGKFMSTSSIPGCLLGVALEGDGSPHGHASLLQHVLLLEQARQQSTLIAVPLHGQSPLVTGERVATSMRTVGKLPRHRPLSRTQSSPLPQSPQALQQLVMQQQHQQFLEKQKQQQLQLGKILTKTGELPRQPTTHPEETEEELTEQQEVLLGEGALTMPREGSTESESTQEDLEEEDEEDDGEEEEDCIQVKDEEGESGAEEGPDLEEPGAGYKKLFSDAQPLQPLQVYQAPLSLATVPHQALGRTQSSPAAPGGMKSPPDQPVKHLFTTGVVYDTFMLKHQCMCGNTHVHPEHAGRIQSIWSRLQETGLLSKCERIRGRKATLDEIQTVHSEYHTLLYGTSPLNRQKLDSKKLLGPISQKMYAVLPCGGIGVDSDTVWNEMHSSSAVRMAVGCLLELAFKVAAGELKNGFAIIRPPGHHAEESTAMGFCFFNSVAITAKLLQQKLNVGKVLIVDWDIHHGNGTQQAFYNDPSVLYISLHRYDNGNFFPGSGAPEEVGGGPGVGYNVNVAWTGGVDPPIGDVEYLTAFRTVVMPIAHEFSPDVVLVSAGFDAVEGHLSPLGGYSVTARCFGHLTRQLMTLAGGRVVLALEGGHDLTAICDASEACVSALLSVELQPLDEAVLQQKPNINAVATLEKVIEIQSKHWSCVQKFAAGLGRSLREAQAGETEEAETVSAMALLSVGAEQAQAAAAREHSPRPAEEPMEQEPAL
Data set [2] concerns the target Cyclin-dependent kinase 5/CDK5 activator 1 (Homo sapiens) (UniProt Q00535+Q15078). Description: Inhibition of CDK5/p35NCK (unknown origin) at 100 nM preincubated for 20 mins followed by [gamma-33P]ATP addition measured after 120 mins in presence of ATP by Hot-SpotSM kinase assay relative to control. It counts as protein-complex assay. The conditions noted are these: time 140.0 min.

For data set [3], the target named is CDK6/cyclin D1 (Homo sapiens) (UniProt P24385+Q00534). Description: Inhibition of CDK6/cyclinD1 (unknown origin) at 100 nM preincubated for 20 mins followed by [gamma-33P]ATP addition measured after 120 mins in presence of ATP by Hot-SpotSM kinase assay relative to control. It counts as protein-complex assay. As to conditions: time 140.0 min.
Data set [4] concerns the target Cyclin-C/Cyclin-dependent kinase 19 (Homo sapiens) (UniProt Q9BWU1+P24863). Description: Inhibition of CDK19/cyclinC (unknown origin) at 100 nM preincubated for 20 mins followed by [gamma-33P]ATP addition measured after 120 mins in presence of ATP by Hot-SpotSM kinase assay relative to control. It counts as protein-complex assay. The conditions noted are these: time 140.0 min.

The subject of data set [5] is HL-60. Description: Downregulation of Pol-II S5 level in human HL-60 cells incubated for 6 hrs by Western blot analysis. The format is functional, cell-based. The conditions noted are these: dose <= 1000.0 nM. (A western blot detects proteins with antibodies after separation by electrophoresis.)
Data set [6] concerns HL-60. The experiment in a line: Induction of apoptosis in human HL-60 cells assessed as viable cells at 0.5 uM incubated for 48 hrs by annexin V-FITC/PI satining based flow cytometry (reference value: 97.4 %). The format is functional. The conditions noted are these: read-out: Activity. In general terms: A flow cytometer gives signals particle by particle.
Data set [7] relates to HL-60. Description: Induction of apoptosis in human HL-60 cells assessed as early apoptotic cells at 2 uM incubated for 48 hrs by annexin V-FITC/PI satining based flow cytometry (reference value: 1.24 %). It counts as functional.
Data set [8] deals with HL-60. Description: Induction of apoptosis in human HL-60 cells assessed as late apoptotic cells at 0.2 uM incubated for 48 hrs by annexin V-FITC/PI satining based flow cytometry (reference value: 1.33 %). It counts as functional.
The test system of data set [9] is HL-60. Description: Induction of apoptosis in human HL-60 cells assessed as late apoptotic cells at 1 uM incubated for 48 hrs by annexin V-FITC/PI satining based flow cytometry (reference value: 1.33 %). It counts as functional.
The test system of data set [10] is HL-60. The experiment in a line: Induction of apoptosis in human HL-60 cells assessed as late apoptotic cells at 2 uM incubated for 48 hrs by annexin V-FITC/PI satining based flow cytometry (reference value: 1.33 %). The format is functional.
The test system of data set [11] is U-937. Description: Induction of apoptosis in human U-937 cells assessed as necrotic cells at 0.2 uM incubated for 48 hrs by annexin V-FITC/PI satining based flow cytometry (reference value: 1.96 %). It counts as functional.
Data set [12] has as its system U-937. The experiment in a line: Induction of apoptosis in human U-937 cells assessed as necrotic cells at 0.5 uM incubated for 48 hrs by annexin V-FITC/PI satining based flow cytometry (reference value: 1.96 %). The format is functional.
Data set [13] relates to U-937. The experiment in a line: Induction of apoptosis in human U-937 cells assessed as necrotic cells at 1 uM incubated for 48 hrs by annexin V-FITC/PI satining based flow cytometry (reference value: 1.96 %). The format is functional.
Data set [14] relates to U-937. Description: Induction of differentiation in human U-937 cells assessed as increase in CD11b positive cells at 2 uM incubated for 48 hrs by FITC staining based flow cytometry (reference value: 2.72 %). The format is functional.
The nature of data set [15]: Half life in Sprague-Dawley rat at 5 mg/kg, iv measured upto 6 hrs by LC/MS-MS analysis. The format is ADME, organism-based. The conditions noted are these: in vivo.
Data set [16] is described as follows: Cytotoxicity against human Kasumi 1 cells assessed as CD34positive CD38negative leukemic stem cell-like cells sub-population at 2 uM incubated for 24 hrs by APC/FITC satining based flow cytometry (reference value: 96.8 %). It counts as functional.
The nature of data set [17]: Clearance in Sprague-Dawley rat at 25 mg/kg, po measured upto 8 hrs by LC/MS-MS analysis. The format is ADME, organism-based. The conditions noted are these: in vivo.
The nature of data set [18]: Bioavailability in Sprague-Dawley rat at 25 mg/kg, po measured upto 8 hrs by LC/MS-MS analysis. The format is ADME, organism-based. The conditions noted are these: in vivo.
The subject of data set [19] is HL-60. The experiment in a line: Induction of apoptosis in human HL-60 cells assessed as early apoptotic cells at 2.5 uM incubated for 48 hrs by annexin V-FITC/PI satining based flow cytometry (reference value: 2.4 %). The format is functional.
In data set [20] the test system is HL-60. Description: Induction of apoptosis in human HL-60 cells assessed as late apoptotic cells at 2.5 uM incubated for 48 hrs by annexin V-FITC/PI satining based flow cytometry (reference value: 2.83 %). The format is functional.
In data set [21] the test system is HL-60. Description: Induction of apoptosis in human HL-60 cells assessed as necrotic cells at 0.6 uM incubated for 48 hrs by annexin V-FITC/PI satining based flow cytometry (reference value: 0.04 %). The format is functional.
The subject of data set [22] is HL-60. The experiment in a line: Induction of apoptosis in human HL-60 cells assessed as necrotic cells at 1.2 uM incubated for 48 hrs by annexin V-FITC/PI satining based flow cytometry (reference value: 0.04 %). The format is functional.
Data set [23] deals with U-937. Description: Induction of apoptosis in human U-937 cells assessed as viable cells at 5 uM incubated for 48 hrs by annexin V-FITC/PI satining based flow cytometry (reference value: 93.7 %). It counts as functional. The conditions noted are these: read-out: Activity.
In data set [24] the test system is U-937. Description: Induction of apoptosis in human U-937 cells assessed as early apoptotic cells at 2.5 uM incubated for 48 hrs by annexin V-FITC/PI satining based flow cytometry (reference value: 1.93 %). The format is functional.
In data set [25] the test system is U-937. The experiment in a line: Induction of apoptosis in human U-937 cells assessed as late apoptotic cells at 0.6 uM incubated for 48 hrs by annexin V-FITC/PI satining based flow cytometry (reference value: 4.23 %). The format is functional.
For data set [26], the system named is U-937. Description: Induction of apoptosis in human U-937 cells assessed as late apoptotic cells at 5 uM incubated for 48 hrs by annexin V-FITC/PI satining based flow cytometry (reference value: 4.23 %). The format is functional.
The test system of data set [27] is U-937. The experiment in a line: Induction of apoptosis in human U-937 cells assessed as necrotic cells at 0.6 uM incubated for 48 hrs by annexin V-FITC/PI satining based flow cytometry (reference value: 0.102 %). The format is functional.
The subject of data set [28] is U-937. The experiment in a line: Induction of apoptosis in human U-937 cells assessed as necrotic cells at 2.5 uM incubated for 48 hrs by annexin V-FITC/PI satining based flow cytometry (reference value: 0.102 %). It counts as functional.
Data set [29] concerns U-937. Description: Induction of differentiation in human U-937 cells assessed as increase in CD11b positive cells at 0.6 uM incubated for 48 hrs by FITC staining based flow cytometry (reference value: […] %). The format is functional.
A short description of data set [30]: Cytotoxicity against human Kasumi 1 cells assessed as CD34positive CD38negative leukemic stem cell-like cells sub-population at 2 uM incubated for 24 hrs by APC/FITC satining based flow cytometry (reference value: 95.8 %). The format is functional.

Sequence of Cyclin-dependent kinase 5/CDK5 activator 1 (Homo sapiens) (Q00535 whole entry): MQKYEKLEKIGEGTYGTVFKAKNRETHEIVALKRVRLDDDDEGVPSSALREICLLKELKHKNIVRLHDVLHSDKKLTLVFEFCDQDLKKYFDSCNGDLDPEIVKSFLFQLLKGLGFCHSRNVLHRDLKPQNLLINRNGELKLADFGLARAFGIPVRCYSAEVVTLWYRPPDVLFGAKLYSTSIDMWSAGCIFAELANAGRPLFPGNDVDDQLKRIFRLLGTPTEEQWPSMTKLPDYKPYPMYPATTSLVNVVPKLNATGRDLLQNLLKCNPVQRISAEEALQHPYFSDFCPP
Sequence of Cyclin-dependent kinase 5/CDK5 activator 1 (Homo sapiens) (Q15078 99-307 partner limits assumed): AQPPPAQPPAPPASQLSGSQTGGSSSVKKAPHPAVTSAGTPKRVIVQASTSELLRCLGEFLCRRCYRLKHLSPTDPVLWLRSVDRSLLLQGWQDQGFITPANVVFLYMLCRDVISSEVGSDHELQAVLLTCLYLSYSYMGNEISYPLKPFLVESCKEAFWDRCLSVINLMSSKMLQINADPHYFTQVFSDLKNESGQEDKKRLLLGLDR

Regarding `Nc1ccccc1NC(=O)c1ccc(NC(=O)c2n[nH]cc2NC(=O)c2c(Cl)cccc2Cl)cc1`, the IC50 (as a rule, the point on the concentration scale where inhibition reaches its midpoint) in data set [1] is < 100 nM; at Histone deacetylase 3, 40.4 nM; on Histone deacetylase 5 it was > 1000 nM. In addition, the inhibition – broadly, the change of the read-out against control, counted positive when it falls – in [2] is 90.7%; in data set [3], 58.2%; in [4] it was 23.1%. Moreover, the Activity result with HL-60 [5] was “Dose-Dependent Effect”; in the data set with HL-60 [7], 35.4%; with HL-60 [8] it was 1.97%; in the data set with HL-60 [9], 39%; with HL-60 [10] it was 54.5%; with U-937 [11], 2.9%. Also, the Activity with U-937 [12] is recorded as 4.15%; with U-937 [13] it was 15.1%; in the data set on U-937 [14], 18.5%; in data set [16], 28.1%. Besides, the viability at 0.5 µM in the data set with HL-60 [6] came to 94.4%. In addition, the t1/2 in data set [15] amounted to 6.6 min. In addition, in [17], the CL/F (in general, clearance divided by bioavailability, as obtained after extravascular dosing) is 28.8 mL/min/kg. Besides, the bioavailability (in general, dose-corrected exposure relative to a reference, in per cent) in data set [18] came out at 56.7%.
Consider `Nc1cc(F)ccc1NC(=O)c1ccc(CNC(=O)/C=C/c2cccnc2)cc1` [TUCIDINOSTAT], for which the Activity is recorded as 5.95% with HL-60 [19]; 37.9% in the data set with HL-60 [20]; 0.07% in the data set with HL-60 [21]; 0.04% in the data set with HL-60 [22]; 2.67% in the data set with U-937 [24]; 4.81% with U-937 [25]. The Activity in the data set on U-937 [26] is listed as 22.7%; with U-937 [27] it was 0.072%; in the data set on U-937 [28], 0.084%; in the data set on U-937 [29] it was 4.06%; in [30], 77.8%. Besides, the viability at 5 µM in the data set on U-937 [23] was found to be 72.6%.
